# Test results published in patent US20080319042A1, “Compositions and methods for treatment of liver disease” (priority 2007, published 2008).
# Several values for one entry are separate records, joined by “and”; a condition that tells them apart may be missing. Identical values can stand only once.
# Experiments:
# HCV JFH1 = HCV JFH1 infectivity assay (JFH1 Foci Reduction Assay); type: cell-based, hepatitis C virus; conditions: virus preincubated with compound, Huh 7 cells, 48 hr post infection, RD8, RD16, RD17, RD18 as glucosidase hydrolysis products
# HCV/HIV pseudovirions = assay: microbe, parasite or virus in culture; type: cell-based, hepatitis C virus
# [1] = system: hepatitis B surface antigen (HBsAg) production; assay: Anti-HBSAg Assay (Procedure A); type: cell-based, hepatitis B virus; conditions: 50 μg/ml
# Procedure: (§1) The HBV-producing human hepatoblastoma cell line, Hep G2.2.15 was maintained in DMEM supplemented with 10% fetal bovine serum (FBS), 2 mM glutamine, 100 units/ml penicillin, 100 μg/ml streptomycin and 380 μg/ml gentamicin sulfate (G418) at 37° C. under 5% CO2 in air. The Hep G2 parental cells were grown under identical conditions in MEM with Earle's salts without G418.
# (§2) Hep G2.2.15 cells (190 μl) were seeded onto microtiter plates at a concentration of 20×10^4 cells/ml. The cells incubated overnight in medium without G418 after which the compound compositions (10 μl) were added. Five 2-fold serial dilutions of extracts or fractions were tested starting at 200 μg/ml final culture concentration. PBS and 3TC (lamivudine) were included as the negative and positive controls, respectively. The treated cells were incubated at 37° C. for 4 days, after which the hepatitis B surface antigen (HBsAg) production in culture supernatants was assayed. The HBsAg released into the culture medium in the presence or absence of test samples was assayed using the BIO-RAD Genetic Systems HBsAg EIA 3.0 kit (Bio-Rad, Redmond, Wash.). This enzyme immunoassay is based on the capture of HBsAg on monoclonal antibody-coated plates. Four- and twelve-fold dilutions of all culture supernatants collected were assayed in triplicate wells of the EIA plate. The percentage inhibition of HBsAg secretion in the presence of the plant samples was calculated against the negative control (PBS).
# Hep G2.2.15 cells = assay: % Cell Viability in Anti-HBSAg Assay (Procedure A); type: cell-based, human; conditions: 50 μg/ml
# Procedure: as §1, §2
# HBsAg = assay: Anti-HBSAg Assay (Procedure B), HBsAg; type: cell-based, hepatitis B virus; set-up: HBsAg Ave.: unit not given here
# Procedure: The HBV-producing human hepatoblastoma cell line, Hep G2 2.2.15 is maintained in DMEM supplemented with 10% fetal bovine serum (FBS), 2 mM glutamine, 100 units/ml penicillin, 100 μg/ml streptomycin at 37° C. under 5% CO2 in air.
# Samples were dissolved in DMSO at the concentration of 20 mg/mL, then further diluted with DMEM medium to the appropriate concentration.
# Hep G2 2.2.15 cells (120 μl) were seeded onto 96-well plates at a concentration of 2×10^5 cells/mL. The cells incubated for 72 h in the medium without G418, after which the test samples (120 μl) were added. Five 3-fold serial dilutions of samples were tested. PBS and 3TC (lamivudine) were included as the negative and positive controls, respectively. The treated cells were incubated at 37° C. for 9 days; with the medium with sample being changed each 3 days, after which the culture supernatant was removed for analysis of both the hepatitis B surface antigen (HBsAg) production and hepatitis B DNA expression.
# The HBsAg released into the culture medium in the presence or absence of test material was assayed using the kit manufactured by Shanghai Siic Kehua Biotech Co., Ltd (Shanghai, China). This enzyme immunoassay is based on the capture of HBsAg on monoclonal antibody-coated plates. Four- and twelve-fold dilutions of all culture supernatants collected were assayed in triplicate wells of the kit plate. The percentage inhibition of HBsAg secretion in the presence of the compound was calculated against the negative control (PBS). The IC50 values, the dose that inhibited viruses by 50%, were calculated using non-linear regression analysis (percent survival versus concentration).
# HBeAg = assay: Anti-HBSAg Assay (Procedure B), HBeAg; type: cell-based, hepatitis B virus; set-up: HBeAg Ave: unit not given here
# HBV DNA = assay: Anti-HBV DNA Assay; type: cell-based, hepatitis B virus; conditions: for HBV DNA copies/ml: replicates, listed as HP-S3
# [2] = Enzyme Hydrolysis Processing Time 0.5 hours
# [3] = Enzyme Hydrolysis Processing Time 4.0 hours
compound,measurement,setting,value
COC(=O)C1=COC(O)C2C1CC(O)C2C (mixture of isomers) [RD-8],Estimated IC50 (inhibition of HCV JFH1 infectivity),HCV JFH1,15 µg/mL
same,HCV Inhibition at 20 μg/mL,HCV/HIV pseudovirions; [2],24.8
same,HCV Inhibition at 20 μg/mL,HCV/HIV pseudovirions; [3],41.4
COC(=O)C1=COC(O)C2C1C(O)CC2(C)O (mixture of isomers) [RD-16],Estimated IC50 (inhibition of HCV JFH1 infectivity),HCV JFH1,14 µg/mL
same,HCV Inhibition at 20 μg/mL,HCV/HIV pseudovirions; [2],49.0
same,HCV Inhibition at 20 μg/mL,HCV/HIV pseudovirions; [3],61.2
CC1C(O)CC2C(C(=O)O)=COC(O)C21 (mixture of isomers) [RD-17],Estimated IC50 (inhibition of HCV JFH1 infectivity),HCV JFH1,17 µg/mL
same,HCV Inhibition at 20 μg/mL,HCV/HIV pseudovirions; [2],39.4
same,HCV Inhibition at 20 μg/mL,HCV/HIV pseudovirions; [3],52.5
O=C(C=Cc1ccc(O)cc1)OCC1=CC(O)C2C=COC(O)C12 (mixture of isomers) [RD-18],Estimated IC50 (inhibition of HCV JFH1 infectivity),HCV JFH1,26 µg/mL
same,HCV Inhibition at 20 μg/mL,HCV/HIV pseudovirions; [2],46.6
same,HCV Inhibition at 20 μg/mL,HCV/HIV pseudovirions; [3],56.6
"OCC1=CC(O)C2C=COC(O)C12 (mixture of isomers) [aucubin enzyme hydrolysate, reference compound]",% Control HBSAg,[1],96%
same,% Inhibition,[1],4%
same,% Cell Viability,Hep G2.2.15 cells,100%
COC(=O)C1=CO[C@@H](O)[C@@H]2C(CO)=CC[C@H]12 [RD-4],IC50,"HCV JFH1; Hepatitis C virus, read-out: Estimated IC50 (inhibition of HCV JFH1 infectivity)",22 µg/mL
same,inhibition at 20 µg/mL,"HCV/HIV pseudovirions; Hepatitis C virus, Huh-7, read-out: HCV Inhibition at 20 μg/mL",73.2%
OCC1=C[C@@H](O)[C@@H]2C=CO[C@@H](O[C@@H]3O[C@H](CO)[C@@H](O)[C@H](O)[C@H]3O)[C@H]12 [aucubin],HBsAg Ave.,HBsAg; 12.5 μg/mL,1.232
same,HBsAg Inhibition %,HBsAg; 12.5 μg/mL,0%
same,HBsAg OD1,HBsAg; 12.5 μg/mL,1.196
same,HBsAg OD2,HBsAg; 12.5 μg/mL,1.261
same,HBsAg OD3,HBsAg; 12.5 μg/mL,1.238
same,HBsAg Ave.,HBsAg; 25 μg/mL,1.309
same,HBsAg Inhibition %,HBsAg; 25 μg/mL,0%
same,HBsAg OD1,HBsAg; 25 μg/mL,1.242
same,HBsAg OD2,HBsAg; 25 μg/mL,1.384
same,HBsAg OD3,HBsAg; 25 μg/mL,1.302
same,HBsAg Ave.,HBsAg; 50 μg/mL,1.272
same,HBsAg Inhibition %,HBsAg; 50 μg/mL,0%
same,HBsAg OD1,HBsAg; 50 μg/mL,1.218
same,HBsAg OD2,HBsAg; 50 μg/mL,1.375
same,HBsAg OD3,HBsAg; 50 μg/mL,1.222
same,HBsAg Ave.,HBsAg; 100 μg/mL,1.292
same,HBsAg Inhibition %,HBsAg; 100 μg/mL,0%
same,HBsAg OD1,HBsAg; 100 μg/mL,1.276
same,HBsAg OD2,HBsAg; 100 μg/mL,1.353
same,HBsAg OD3,HBsAg; 100 μg/mL,1.246
same,HBsAg Ave.,HBsAg; 200 μg/mL,1.541
same,HBsAg Inhibition %,HBsAg; 200 μg/mL,0%
same,HBsAg OD1,HBsAg; 200 μg/mL,1.546
same,HBsAg OD2,HBsAg; 200 μg/mL,1.616
same,HBsAg OD3,HBsAg; 200 μg/mL,1.46
same,HBeAg Ave,HBeAg; 12.5 μg/mL,1.378
same,HBeAg Inhibition %,HBeAg; 12.5 μg/mL,0%
same,HBeAg OD1,HBeAg; 12.5 μg/mL,1.397
same,HBeAg OD2,HBeAg; 12.5 μg/mL,1.419
same,HBeAg OD3,HBeAg; 12.5 μg/mL,1.318
same,HBeAg Ave,HBeAg; 25 μg/mL,1.364
same,HBeAg Inhibition %,HBeAg; 25 μg/mL,0%
same,HBeAg OD1,HBeAg; 25 μg/mL,1.332
same,HBeAg OD2,HBeAg; 25 μg/mL,1.369
same,HBeAg OD3,HBeAg; 25 μg/mL,1.390
same,HBeAg Ave,HBeAg; 50 μg/mL,1.383
same,HBeAg Inhibition %,HBeAg; 50 μg/mL,0%
same,HBeAg OD1,HBeAg; 50 μg/mL,1.357
same,HBeAg OD2,HBeAg; 50 μg/mL,1.437
same,HBeAg OD3,HBeAg; 50 μg/mL,1.354
same,HBeAg Ave,HBeAg; 100 μg/mL,1.616
same,HBeAg Inhibition %,HBeAg; 100 μg/mL,0%
same,HBeAg OD1,HBeAg; 100 μg/mL,1.707
same,HBeAg OD2,HBeAg; 100 μg/mL,1.479
same,HBeAg OD3,HBeAg; 100 μg/mL,1.662
same,HBeAg Ave,HBeAg; 200 μg/mL,1.357
same,HBeAg Inhibition %,HBeAg; 200 μg/mL,0%
same,HBeAg OD1,HBeAg; 200 μg/mL,1.350
same,HBeAg OD2,HBeAg; 200 μg/mL,1.305
same,HBeAg OD3,HBeAg; 200 μg/mL,1.415
same,% Control HBSAg,[1],100%
same,% Inhibition,[1],0%
same,HBV DNA Average,HBV DNA; 12.5 μg/ml,1.06 × 10^6 copies/ml
same,HBV DNA Inhibit,HBV DNA; 12.5 μg/ml,9.40%
same,HBV DNA copies/ml,HBV DNA; 12.5 μg/ml,1.03E+06 copies/ml and 9.68E+05 copies/ml and 1.18E+06 copies/ml
same,HBV DNA Average,HBV DNA; 25 μg/ml,1.03 × 10^5 copies/ml
same,HBV DNA Inhibit,HBV DNA; 25 μg/ml,1.35%
same,HBV DNA copies/ml,HBV DNA; 25 μg/ml,9.52E+05 copies/ml and 1.07E+06 copies/ml and 1.04E+06 copies/ml
same,HBV DNA Average,HBV DNA; 50 μg/ml,1.28 × 10^6 copies/ml
same,HBV DNA Inhibit,HBV DNA; 50 μg/ml,0.00%
same,HBV DNA copies/ml,HBV DNA; 50 μg/ml,1.22E+06 copies/ml and 1.27E+06 copies/ml and 1.35E+06 copies/ml
same,HBV DNA Average,HBV DNA; 100 μg/ml,1.32 × 10^6 copies/ml
same,HBV DNA Inhibit,HBV DNA; 100 μg/ml,0.00%
same,HBV DNA copies/ml,HBV DNA; 100 μg/ml,1.17E+06 copies/ml and 1.15E+06 copies/ml and 1.65E+06 copies/ml
same,HBV DNA Average,HBV DNA; 200 μg/ml,1.20 × 10^6 copies/ml
same,HBV DNA Inhibit,HBV DNA; 200 μg/ml,0.00%
same,HBV DNA copies/ml,HBV DNA; 200 μg/ml,1.38E+06 copies/ml and 9.71E+05 copies/ml and 1.24E+06 copies/ml
same,inhibition of HCV/HIV entry,"HCV/HIV pseudovirions; 100 μg/mL, FIG. 1",inactive
